Measured values taken from PubChem BioAssay (NCI).
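Step 1: Grow cells in 96-well plates. Step 2: Expose to compound for 48 hours at 5 concentrations. Step 3: Interpolate endpoints linearly; if unreached, use highest concentration. At the TGI there is no net growth.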

Columns and labels:
Experiment in all cases: DTP human tumour cell line panel, 48 h
NCI-H460 lung = system: NCI-H460 lung
OVCAR-3 ovarian = system: OVCAR-3 ovarian
SR leukemia = system: SR leukemia
OVCAR-8 ovarian = system: OVCAR-8 ovarian
DU-145 prostate = system: DU-145 prostate
MALME-3M melanoma = system: MALME-3M melanoma
LOX IMVI melanoma = system: LOX IMVI melanoma
MDA-N = system: MDA-N
HOP-62 NSCLC = system: HOP-62 NSCLC
SF-295 CNS = system: SF-295 CNS
A549 NSCLC = system: A549 NSCLC
OVCAR-5 ovarian = system: OVCAR-5 ovarian
MDA-MB-435 = system: MDA-MB-435
SW-620 colon = system: SW-620 colon
NCI-H522 lung = system: NCI-H522 lung
HT29 colon = system: HT29 colon
MOLT-4 leukemia = system: MOLT-4 leukemia

Row | Compound | TGI (NCI-H460 lung) | TGI (OVCAR-3 ovarian) | TGI (SR leukemia) | TGI (OVCAR-8 ovarian) | TGI (DU-145 prostate) | TGI (MALME-3M melanoma) | TGI (LOX IMVI melanoma) | TGI (MDA-N) | TGI (HOP-62 NSCLC) | TGI (SF-295 CNS) | TGI (A549 NSCLC) | TGI (OVCAR-5 ovarian) | TGI (MDA-MB-435) | TGI (SW-620 colon) | TGI (NCI-H522 lung) | TGI (HT29 colon) | TGI (MOLT-4 leukemia)
1 | CS(=O)(=O)C(C#N)c1nc2ccccc2nc1Cl (configuration not stated) | > 100 µM | > 100 µM | > 100 µM | > 100 µM | > 100 µM | > 100 µM | > 100 µM | > 100 µM | > 100 µM | > 100 µM | > 100 µM | > 100 µM | > 100 µM | > 100 µM | > 100 µM | > 100 µM | > 100 µM
2 | CCOC(=O)c1ccc(N=C/C=C(\Nc2ccc(C(=O)OCC)cc2)C23CC4CC(CC(C4)C2)C3)cc1 | > 100 µM | > 100 µM | > 100 µM | > 100 µM | > 100 µM | > 100 µM | > 100 µM | > 100 µM | > 100 µM | > 100 µM | > 100 µM | > 100 µM | > 100 µM | > 100 µM | > 100 µM | > 100 µM | > 100 µM
3 | C=C(CCOC)CCC1CCCCC(CN(C)C)C1=O (configuration not stated) | > 100 µM | > 100 µM | > 100 µM | > 100 µM | > 100 µM | > 100 µM | > 100 µM | > 100 µM | > 100 µM | > 100 µM | > 100 µM | > 100 µM | > 100 µM | > 100 µM | > 100 µM | > 100 µM | > 100 µM
4 | COc1ccc(Cn2c(=O)c(OC)c(C)c3cc4ccccc4cc32)cc1 | 36.8 µM | > 100 µM | 57.5 µM | > 100 µM | > 100 µM | 72.7 µM | 41.7 µM | > 100 µM | > 100 µM | > 100 µM | > 100 µM | > 100 µM | > 100 µM | > 100 µM | 59.6 µM | > 100 µM | 53 µM
5 | Nc1ccccc1CCN1CCN(CCCc2ccccc2)CC1 | > 100 µM | > 100 µM | > 100 µM | > 100 µM | > 100 µM | 31.6 µM | > 100 µM | > 100 µM | > 100 µM | > 100 µM | > 100 µM | > 100 µM | > 100 µM | > 100 µM | > 100 µM | > 100 µM | > 100 µM
6 | COc1ccc(Cn2c3c(cc(OC(C)=O)c2=O)Cc2ccccc2-3)cc1 | 15 µM | > 50 µM | 28 µM | 20.3 µM | > 50 µM | 32.2 µM | 19.7 µM | > 50 µM | > 50 µM | > 50 µM | > 50 µM | > 50 µM | > 50 µM | 22.4 µM | 15.1 µM | 25.2 µM | 28.8 µM
7 | Cc1cc(C)nc(NS(=O)(=O)c2ccc(Nc3c4ccccc4nc4ccc(C(=O)Nc5ccc(S(N)(=O)=O)cc5)cc34)cc2)n1 | > 100 µM | > 100 µM | > 100 µM | > 100 µM | > 100 µM | > 100 µM | > 100 µM | > 100 µM | > 100 µM | > 100 µM | > 100 µM | > 100 µM | > 100 µM | > 100 µM | > 100 µM | > 100 µM | > 100 µM
8 | ONC1=Nc2cc(Cl)ccc2C(=S)N2CSCC12 (configuration not stated) | > 100 µM | > 100 µM | > 100 µM | > 100 µM | > 100 µM | > 100 µM | > 100 µM | > 100 µM | > 100 µM | > 100 µM | > 100 µM | > 100 µM | > 100 µM | > 100 µM | > 100 µM | > 100 µM | > 100 µM
9 | COC(=O)c1csc([C@@H](OC(=O)[C@H](C)[C@H](CCCC(C)(Cl)Cl)OC(=O)c2csc([C@H](O)CO)n2)C(C)C)n1 | 23.2 µM | 30.8 µM | 32.2 µM | 22.4 µM | 24.8 µM | 34.3 µM | 23.5 µM | 21.3 µM | 33.6 µM | 29.1 µM | 32.1 µM | 29 µM | 26.8 µM | 32.6 µM | 32.9 µM | 36.8 µM | 32.2 µM
10 | CC(=O)SCCC(NC(=S)Nc1ccccc1)P(=O)(Oc1ccccc1)Oc1ccccc1 (configuration not stated) | > 100 µM | > 100 µM | > 100 µM | > 100 µM | > 100 µM | > 100 µM | > 100 µM | > 100 µM | > 100 µM | > 100 µM | > 100 µM | > 100 µM | > 100 µM | > 100 µM | > 100 µM | > 100 µM | > 100 µM
11 | Cc1ccc(C(=O)O)c(/C=C2\Cc3ccc(C)cc3C2=O)c1 | > 100 µM | > 100 µM | > 100 µM | > 100 µM | > 100 µM | > 100 µM | > 100 µM | > 100 µM | > 100 µM | > 100 µM | > 100 µM | > 100 µM | > 100 µM | > 100 µM | > 100 µM | > 100 µM | > 100 µM
12 | O=C1CS(=O)(=O)C(c2cccc(Oc3ccccc3)c2)N1c1ccc(Cl)cc1 (configuration not stated) | 35.8 µM | > 100 µM | 45.4 µM | 47.8 µM | > 100 µM | 73.2 µM | 29.1 µM | 53 µM | > 100 µM | > 100 µM | > 100 µM | > 100 µM | 73.4 µM | > 100 µM | 68.9 µM | > 100 µM | 62.7 µM
13 | CS(=O)(=O)Nc1ccc2ccccc2c1-c1c(NS(C)(=O)=O)ccc2ccccc12 | > 25 µM | > 25 µM | > 25 µM | > 25 µM | > 25 µM | > 25 µM | > 25 µM | > 25 µM | > 25 µM | > 25 µM | > 25 µM | > 25 µM | > 25 µM | > 25 µM | > 25 µM | > 25 µM | > 25 µM
14 | O=c1[nH]c2cc(C(F)(F)F)ccc2nc1C(F)(F)F | > 100 µM | 58 µM | > 100 µM | > 100 µM | > 100 µM | > 100 µM | > 100 µM | > 100 µM | 76.7 µM | > 100 µM | > 100 µM | > 100 µM | 85.2 µM | > 100 µM | 99.1 µM | > 100 µM | > 100 µM
15 | COC(=O)[C@@H]1C[C@H]2OC(=O)CC[C@]2(C)O[C@H]1[C@H]1O[C@@](C)(O)CCC[C@H]1C | > 50 µM | > 50 µM | > 50 µM | > 50 µM | > 50 µM | > 50 µM | > 50 µM | > 50 µM | > 50 µM | > 50 µM | > 50 µM | > 50 µM | > 50 µM | > 50 µM | > 50 µM | > 50 µM | > 50 µM
16 | O=C(CSc1nnc(-c2ccccn2)s1)N/N=C/c1ccccc1 | > 100 µM | > 100 µM | > 100 µM | > 100 µM | > 100 µM | > 100 µM | > 100 µM | > 100 µM | > 100 µM | > 100 µM | > 100 µM | > 100 µM | > 100 µM | > 100 µM | > 100 µM | > 100 µM | > 100 µM
17 | N#Cc1c(-c2ccc(Cl)cc2)c2c(n(C3OC(CO)C(O)C(O)C3O)c1=S)CCCC2 (configuration not stated) | > 100 µM | > 100 µM | > 100 µM | > 100 µM | > 100 µM | > 100 µM | > 100 µM | > 100 µM | > 100 µM | > 100 µM | > 100 µM | > 100 µM | > 100 µM | > 100 µM | > 100 µM | > 100 µM | 87.1 µM
18 | Cc1cccc(Cl)c1NCC(O)CN1CCN(C)CC1 (configuration not stated) | > 100 µM | > 100 µM | > 100 µM | > 100 µM | > 100 µM | > 100 µM | > 100 µM | > 100 µM | > 100 µM | > 100 µM | > 100 µM | > 100 µM | > 100 µM | > 100 µM | > 100 µM | > 100 µM | > 100 µM
19 | Cc1c(-c2ccccc2)cc(O)c2nc3ccccc3n12 | > 100 µM | > 100 µM | > 100 µM | > 100 µM | > 100 µM | > 100 µM | > 100 µM | > 100 µM | > 100 µM | > 100 µM | > 100 µM | > 100 µM | > 100 µM | > 100 µM | > 100 µM | > 100 µM | > 100 µM
20 | Cc1ccc2c(ccc(/C=C/c3ccc(O)c4ncccc34)[n+]2C)c1 | 30.3 µM | 10.4 µM | > 35.7 µM | 24 µM | > 57.3 µM | 31.4 µM | 30.2 µM | > 44.9 µM | 32.9 µM | 34.9 µM | 44.1 µM | 53.3 µM | > 52.1 µM | 28.4 µM | 27.1 µM | 27.7 µM | > 82.2 µM
21 | CC(C)CCNC(=O)c1ccc(CNC(=O)/C=C/c2cccc(Oc3ccccc3)c2)cc1 | > 100 µM | 93 µM | > 100 µM | > 100 µM | > 100 µM | > 100 µM | > 100 µM | 38.3 µM | 53.3 µM | > 100 µM | > 100 µM | > 100 µM | 41.6 µM | > 100 µM | > 100 µM | > 100 µM | > 100 µM
